In publication PMC5513091, “A novel Alzheimer’s disease drug candidate targeting inflammation and fatty acid metabolism” (Alzheimer's Research & Therapy, 2017):

Key:
CYP 2Cb = CYP 2Cb (Homo sapiens, UniProt P11712); assay: CYP inhibition; format: in vitro ADME
primary cortical neurons = assay: Oxytosis; format: cell-based; conditions: Primary cortical neuron; read-out: Half-maximal effective concentration, Oxytosis
Procedure: (§1) The various phenotypic screening assays were conducted as previously described. Briefly, HT-22, primary cortical neurons, or MC65 was plated and exposed to the different environmental stresses. Cells were treated with varying concentrations of CAD-31, and half-maximal effective concentration (EC50) was determined on the basis of cell viability.
(§2) • An assay that mimics the dramatic loss of neurotrophic support in the old brain is the trophic factor withdrawal assay. Primary embryonic day 18 cortical cells are plated at low density in serum-free medium. At low density, the cells die within 2 days; they can be rescued by combinations of neurotrophic growth factors, but not by one alone ([19] and unpublished data). […] BDNF is a molecule that is also involved in promoting memory and neurogenesis and is reduced in the brain with age and in AD, as well as in other neurological disorders. BDNF has long been considered a drug target for AD [23]. […] A reduction in GSH is a common denominator of old age and essentially all chronic central nervous system (CNS) diseases. J147 and CAD-31 both effectively reduce oxidative stress, with EC50 of 6 nM and 20 nM, respectively. • CAD-31 also prevents loss of energy metabolism that leads to neuron cell death in an in vitro ischemia model. […]

eIF2α phosphorylation = assay: Immunoblotting of hippocampal tissue; format: in vivo; conditions: hippocampus, WT and old AD mice, 200 ppm in chow 3 months
Procedure: (§3) Hippocampal tissue samples were homogenized in 10 volumes of radioimmunoprecipitation assay (RIPA) lysis buffer (50 mM Tris, pH 7.5, 150 mM NaCl, 0.1% SDS, 0.5% deoxycholate, and 1% Nonidet P-40) containing a cocktail of protease and phosphatase inhibitors [[…] each of pepstatin A, aprotinin, phosphoramidon, and leupeptin; 0.5 mM 4-(2-aminoethyl)benzenesulfonyl fluoride hydrochloride; 1 mM ethylene glycol-bis(β-aminoethyl ether)-N,N,N′,N′-tetraacetic acid; 5 mM fenvalerate; and 5 mM cantharidin]. Samples were sonicated (2 × 10 seconds) and centrifuged first at 10,000 × g for 10 minutes and then at 100,000 × g for 60 minutes at 4 °C. The 100,000 × g pellet was taken up either in 6 M guanidine for Aβ analysis or in SDS sample buffer for Western blot analysis. Protein concentrations in the cell extracts were determined using a bicinchoninic acid protein assay (Pierce Biotechnology, Rockford, IL, USA). Equal amounts of protein were solubilized in 2.5× SDS sample buffer, separated on 12% SDS-polyacrylamide gels, transferred to Immobilon-P (EMD Millipore, Billerica, MA, USA), and immunoblotted with the antibodies indicated in the Materials subsection above. For Western blot experiments, protein levels were normalized to actin levels. An unpaired t test was performed to compare two groups at a single time point. When comparing multiple groups, one-way analysis of variance (ANOVA) followed by Tukey’s post hoc test was used. All statistical analysis was conducted using GraphPad InStat software.

OSCP = assay: Immunoblotting of hippocampal tissue; format: in vivo; conditions: hippocampus, control and AD mice
Procedure: as §3

Arc-1 = assay: Immunoblotting of hippocampal tissue; format: in vivo; conditions: hippocampus, AD mice fed CAD-31 vs AD mice not fed
Procedure: as §3

clusterin = assay: Immunoblotting of hippocampal tissue; format: in vivo; conditions: hippocampus, AD mice
Procedure: as §3

VCAM = assay: Immunoblotting of hippocampal tissue; format: in vivo; conditions: hippocampus, AD mice
Procedure: as §3

RAGE = assay: Immunoblotting of hippocampal tissue; format: in vivo; conditions: hippocampus, AD mice
Procedure: as §3

AMPK phosphorylation = assay: Immunoblotting of hippocampal tissue; format: in vivo; conditions: hippocampus, WT and old AD mice, 200 ppm in chow 3 months
Procedure: as §3

Drebrin = assay: Immunoblotting of hippocampal tissue; format: in vivo; conditions: hippocampus, AD mice fed CAD-31 vs AD mice not fed
Procedure: as §3

Aβ1–42 [1] = assay: Aβ enzyme-linked immunosorbent assay; format: in vivo, mice
Procedure: as §3
Aβ1–42 levels in hippocampal lysate were analyzed using Aβ1–42 enzyme-linked immunosorbent assay kits from Invitrogen (catalogue number KHB3442). All kit reagents were brought to room temperature before use. […] A quantity of 50 μl of Aβ peptide standards and samples was added in duplicate to 96-well plates precoated with antibody to the NH2-terminal region of Aβ. […] Stop solution was then added at 100 μl to each well, followed by reading the absorbance of each well at 450 nm. […] The concentrations of the samples were calculated from the standard curve and multiplied by the dilution factor.

Aβ1–42 [2] = molecular target: Aβ1–42 (Homo sapiens, UniProt P05067); assay: Thioflavin S Aβ1–42 aggregation assay; format: biochemical; conditions: data not shown
CYP 1A2 = CYP 1A2 (Homo sapiens, UniProt P05177); assay: CYP inhibition; format: in vitro ADME
Acute Toxicity (PO) = format: in vivo
[3] = test system: Primary embryonic day 18 cortical cells; assay: Trophic factor withdrawal assay; format: cell-based; conditions: Cortical neurone; Cortical neuron; cell viability; read-out: Half-maximal effective concentration, Trophic factor withdrawal
Procedure: as §1, §2

Aβ plaque = test system: Aβ plaque; set-up: method as in PMID 27149904; conditions: early study; cited from earlier work
rat hippocampal neurons = assay: Aβ toxicity (extracellular); format: cell-based; conditions: Hippocampal neuron, read-out: Half-maximal effective concentration, Aβ toxicity (extracellular)
[4] = brain of CAD-31 treated hAPPswe/PS1ΔE9 mice (AD+31)

Chain of CYP 1A2 (P05177 whole entry): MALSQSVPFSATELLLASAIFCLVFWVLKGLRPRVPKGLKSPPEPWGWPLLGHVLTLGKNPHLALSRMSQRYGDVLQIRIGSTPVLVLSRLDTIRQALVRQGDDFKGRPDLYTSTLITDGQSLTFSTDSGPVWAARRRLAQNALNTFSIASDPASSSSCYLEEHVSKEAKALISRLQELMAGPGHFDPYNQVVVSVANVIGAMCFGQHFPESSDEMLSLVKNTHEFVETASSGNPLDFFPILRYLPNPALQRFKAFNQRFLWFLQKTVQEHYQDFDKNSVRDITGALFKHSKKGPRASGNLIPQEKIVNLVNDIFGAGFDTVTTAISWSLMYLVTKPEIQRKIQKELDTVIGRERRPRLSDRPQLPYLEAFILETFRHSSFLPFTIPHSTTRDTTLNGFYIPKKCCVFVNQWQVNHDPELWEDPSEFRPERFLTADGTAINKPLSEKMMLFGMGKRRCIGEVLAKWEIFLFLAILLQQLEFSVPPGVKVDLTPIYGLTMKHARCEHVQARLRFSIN
Chain of Aβ1–42 (Homo sapiens, UniProt P05067) (P05067 672-713 limits assumed): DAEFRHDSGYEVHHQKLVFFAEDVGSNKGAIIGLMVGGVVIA
Chain of CYP 2Cb (P11712 whole entry): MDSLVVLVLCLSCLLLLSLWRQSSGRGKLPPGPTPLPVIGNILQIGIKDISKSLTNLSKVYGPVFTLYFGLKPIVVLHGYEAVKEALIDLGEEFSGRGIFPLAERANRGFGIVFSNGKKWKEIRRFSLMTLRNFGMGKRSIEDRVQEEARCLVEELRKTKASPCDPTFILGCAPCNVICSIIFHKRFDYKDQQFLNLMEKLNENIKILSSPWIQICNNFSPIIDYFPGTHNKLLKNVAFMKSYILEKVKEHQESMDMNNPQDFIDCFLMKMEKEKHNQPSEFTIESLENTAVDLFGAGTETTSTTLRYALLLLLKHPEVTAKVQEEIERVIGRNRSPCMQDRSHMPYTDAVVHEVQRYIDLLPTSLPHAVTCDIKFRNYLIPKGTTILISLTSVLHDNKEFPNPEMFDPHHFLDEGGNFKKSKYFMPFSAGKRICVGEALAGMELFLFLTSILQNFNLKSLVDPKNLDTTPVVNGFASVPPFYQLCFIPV

## Cc1ccc(N(/N=C/c2cccc(OC(F)(F)F)c2)C(=O)C(F)(F)F)c(C)c1 [CAD-31]
CYP 2Cb
  EC50 at 10 µM: > 10000 nM
Primary cortical neurons
  EC50: 20 nM
eIF2α phosphorylation
  eIF2α phosphorylation (ratio to total eIF2α): stimulates eIF2α phosphorylation in both WT and old AD mice
OSCP
  OSCP expression: increased expression of OSCP in both control and AD mice
Arc-1
  Arc-1 expression: increased expression of both proteins
clusterin
  clusterin expression: reduced the expression
VCAM
  VCAM expression: reduced the expression
RAGE
  RAGE expression: reduced the expression
AMPK phosphorylation
  AMPK activation by phosphorylation (ratio to total AMPK): enhanced
Drebrin
  Drebrin expression: increased expression of both proteins
Ames test
  EC50 at 10 µM: > 10000 nM
Ames test; 10 μM
  activity in the Ames test: showed no sign of acute toxicity or activity
Aβ1–42 [1]; [4]
  RIPA Insoluble Aβ1-42: 4581 ± 489.3 pg/mg protein
  RIPA Soluble Aβ1-42: 16.57 ± 3.359 pg/mg protein
Aβ1–42 [1]; therapeutic paradigm, AD mice
  levels of soluble or insoluble Aβ1–42: did not reduce the levels of either soluble or insoluble Aβ1–42
Aβ1–42 [2]
  binding to and direct inhibition of Aβ1–42 aggregation: Neither J147 nor CAD-31 binds to and directly inhibits Aβ1–42 aggregation
CYP 1A2
  EC50 at 10 µM: > 10000 nM
Acute Toxicity (PO)
  acute toxicity: no sign of acute toxicity
Acute Toxicity (PO); observation one week post gavage
  Oral acute toxicity LD50: >2000 mg/kg
[3]
  EC50: 18 nM
Aβ plaque
  Aβ plaque density or size: no effect on Aβ plaque density or size
Rat hippocampal neurons
  EC50: 27 nM
